“Also recorded” adds a separate entry of the source.
Experiments:
SH-SY5Y cells = assay: Confocal microscopy of F—NpCul fluorescence in cells with copper loading or depletion (FIG. 4); type: cell-based, human
Method: SH-SY5Y cells were used, which are a human neuron-like cell line. SH-SY5Y cells were maintained at 37° C. in 5% CO2. Cells were cultured in Dulbecco's Modified Eagle's Medium (DMEM, Thermo Fisher Scientific) supplemented with 10% foetal calf serum (FCS, Thermo Fisher Scientific) and 2.5 mM L-glutamine (Sigma-Aldrich). Fluorobrite DMEM (FDMEM, Thermo Fisher Scientific) was supplemented with 10% FCS and 2.5 mM L-glutamine, unless otherwise stated.
For all imaging experiments, 1.5×10^5 cells were seeded into 35 mm glass bottom dishes (MatTek) and allowed to adhere overnight. 10 mM stock solutions of F—NpCul CuATSM were freshly prepared in DMSO. A 10 mM stock solution of BCS was freshly prepared in MilliQ water. For experiments cells were dosed with nothing (vehicle), 1 μL of 10 mM CuATSM stock in 1 mL DMEM or 10 μL of 10 mM BCS solution in 1 mL DMEM. […]
Images were obtained at 37° C. in a 5% CO2 atmosphere on an Olympus Fluo View FV3000 Confocal Laser Scanning Microscope, equipped with an Olympus 60× water objective (UPLSAPO60XW) and 405 and 640 nm lasers, unless otherwise stated. All samples were excited at 405 nm, and fluorescence emission collected from 510-610 nm. […] Data is presented as the mean fluorescence intensities of 40-50 cell clusters chosen as regions of interest from 10 images representative of each condition.

SWISS mice = assay: DIVE microscopy of fluorescent emission in CuATSM-treated vs untreated mice after F—NpCul injection (FIG. 5, FIG. 6); type: in vivo, mouse; conditions: 4 mg/kg F—NpCul i.v. tail vein, CuATSM 15 mg/kg orally daily for eight days
Method: (§1) In this work, anaesthetised SWISS mice underwent a craniotomy surgery to expose a region of parietal cortex. Imaging was performed through this cranial window with a water dipping objective lens. 4 mg/kg F—NpCul was i.v. injected through the tail vein after three minutes. F—NpCul was excited at 920 nm and emission was 504-577nm. “Treated” mice (n=3) were orally administered the copper-delivery compound CuATSM (15 mg/kg) daily for eight days to increase brain copper levels prior to imaging while control mice (n=3, “Untreated”) received no treatment. For each mouse at all time points, fluorescent emission per unit area (arbitrary units) from five representative regions of interest (ROIs) within vasculature and five ROIs in surrounding tissue was quantified from a projected image combining 130 μm depth. Baseline fluorescence from an image acquired prior to probe injection was subtracted from all fluorescent measurements which were then averaged at each time point. Comparison of average fluorescent emission intensity between control and CuATSM-treated mice was undertaken for a) brain tissue and b) vasculature. Unpaired t-tests with significance p<0.05 were performed to describe the temporal pattern of change. Error bars show mean ±SEM.
(§2) Anaesthetised SWISS mice underwent a craniotomy surgery to create a cranial window exposing parietal cortex. […]

mice = assay: Observation of signs of toxicity in the in vivo studies; design: species or system mouse; conditions: in vivo imaging studies, 4 mg/kg F—NpCul
Method: as §1, §2

CCSCCN(CCSCC)Cc1cn(C(=O)OCCOCCNc2ccc3c4c(cccc24)C(=O)N(CCF)C3=O)cn1 [F—NpCul]
mean fluorescence intensity response to copper status (SH-SY5Y cells; 10 μM F—NpCul, cells treated with vehicle, 10 μM CuATSM (copper-loading) or 100 μM BCS (copper-depleting) for 1 h, P<0.001 v vehicle): sensitive to both an accumulation and a deficiency of copper
bioavailability and cell uptake, reporting intracellular Cu(I) levels (SH-SY5Y cells; preliminary results): bioavailable and can be taken up by cells to report intracellular Cu(I) levels
reported copper levels within the vasculature, treated vs untreated mice (SWISS mice): equivalent
fluorescent signal in brain tissue, CuATSM-treated vs untreated mice (SWISS mice; parietal cortex, excitation 920 nm, emission 504-577 nm): significantly higher; also recorded: Higher fluorescent signal is observed in CuATSM-treated mice compared to control
signs of toxicity following F—NpCul exposure (mice): no signs of toxicity

Source: patent publication US20260000794A1, “IN VIVO TRANSITION METAL DETECTION” (The University of Sydney, priority 2022, published 2026)
